According to patent US5607962A, “Substituted indole derivatives” (Bayer Aktiengesellschaft, priority 1995, dated 1997):

Test system: smooth muscle cells
Test: Inhibition of the proliferation of smooth muscle cells (3H-thymidine incorporation)
Assay type: cell-based, pigs
Settings: Sus scrofa; smooth muscle cells from pig aortas; half-maximum inhibition of 3H-thymidine incorporation produced by 10% FCS
Protocol: Investigation of the inhibition of the proliferation of smooth muscle cells by the compounds according to the invention
To determine the antiproliferative action of the compounds, smooth muscle cells are used which have been obtained from the aortas of pigs by the media explant technique [R. Ross, J. Cell. Biol. 50, 172, 1971]. The cells are inoculated into suitable culture dishes, as a role 96-hole plates, and cultured at 37° C. for 2-3 days in medium 199 with 7.5% FCS and 7.5% NCS, 2 mM L-glutamine and 15 mM HEPES, pH 7.4 in 5% CO2. The cells are then synchronized by withdrawal of serum for 2-3 days and then stimulated to growth using serum or other factors. At the same time, test compounds are added. […] To determine the IC50 values, the active compound concentration is calculated at which sequential dilution of the active compound causes half-maximum inhibition of the thymidine incorporation produced by 10% FCS.

With NC(=O)C(NC(=O)[C@@H]1CCCC[C@H]1c1ccc(Cc2c(-c3ccccc3)[nH]c3ccccc23)cc1)c1ccccc1 (stereo partly drawn) [Example 3, trans-2-[4-(2-Phenylindol-3-yl-methyl)phenyl]-cyclohexane-1-carbonyl(phenylglycinamido)amide] the IC50 was 0.02 nM.
